Laboratory results reported in publication PMC6005341, “Identification of “sarsasapogenin-aglyconed” timosaponins as novel Aβ-lowering modulators of amyloid precursor protein processing” (Chemical Science, 2016).

System: Aβ42 levels in rat primary cortical neuron culture
Experiment: Aβ42 in conditioned medium of rat primary cortical neuron culture, 5-day incubation
Type: cell-based
Settings: n = 3
Source text: Reagents: All reagents were of analytical grade (purity > 98%) and were purchased from Sigma-Aldrich Chemical Co. unless otherwise specified. SSG (1) was purchased from Wako Pure Chemical Industries, Ltd. Diosgenin (6), Dioscin (9), Polyphyllin D (10), Timosaponin BI (22) and Timosaponin BII (23) were purchased from Chengdu Must Bio-Technology Co.
Ltd. Yamogenin (7) was bought from Ambinter c/o Greenpharma while Smilagenin (24) was bought from Steraloids Inc. Substances dissolved in DMSO as stock solutions. Cell culture medium constituents were purchased from Life Technologies, Inc.
Cell culture: Neuro-2A cells expressing Swedish mutants of APP (N2A-APPswe provided by Prof. Yifan Han, The Hong Kong Polytechnic University)1 was cultured in minimal essential medium with 2 mM glutamine, 2 mM pyruvate and 10% fetal bovine serum. Cells were seeded at 6-well plate at 1×106 cells/mL and grown for two days until confluence. The medium was replaced and the testing compounds were added at indicated concentrations for […]
Primary cortical neurons were prepared from embryonic day 17 Sprague-Dawley rats (Laboratory Animal Unit, The University of Hong Kong). Cerebral cortices were mechanically dissociated in complete medium (MEM with 18 mM glucose; 2 mM L-glutamine; 5% FBS; hormone cocktail, penicillin (50 U/mL), streptomycin (50 μg/mL), and […]). Cells were seeded onto six-well plate (0.5 × 10^6 cells/well) pre-coated with poly-L-lysine. […]
rabbit antibody (Millipore). The immunoreactivities were detected using enhanced chemiluminescence reagents (GE Health care). […]
Aβ ELISA: Aβ concentrations in conditioned medium were assayed using ELISA kits for human Aβ40, human Aβ42 (ultrasensitive) (Invitrogen), human Aβ38 (MyBioSource) (in N2A-APPswe cells) or Wako High Sensitive Aβx-42 ELISA kit (in Rat primary cortical neuron culture). The viability of the N2A-APPswe and Primary cortical neurons were determined by MTT and LDH release assays, respectively. […]

SMILES | Aβ42 reduction (%) (5 μM) | Aβ42 reduction (%) (10 μM)
C[C@H]1CC[C@@]2(OC1)O[C@H]1C[C@H]3[C@@H]4CC[C@@H]5C[C@@H](O)CC[C@]5(C)[C@H]4CC[C@]3(C)[C@H]1[C@@H]2C [SSG (1), sarsasapogenin] | 25 ± 4% | –
C[C@H]1CC[C@@]2(OC1)O[C@H]1C[C@H]3[C@@H]4CC[C@@H]5C[C@@H](O[C@@H]6O[C@H](CO)[C@H](O)[C@H](O)[C@H]6O)CC[C@]5(C)[C@H]4CC[C@]3(C)[C@H]1[C@@H]2C [TAI (3), timosaponin A I] | – | 28 ± 5%
C[C@H]1CC[C@@]2(OC1)O[C@H]1C[C@H]3[C@@H]4CC[C@@H]5C[C@@H](O[C@@H]6O[C@H](CO)[C@H](O)[C@H](O)[C@H]6O[C@@H]6O[C@H](CO)[C@@H](O)[C@H](O)[C@H]6O)CC[C@]5(C)[C@H]4CC[C@]3(C)[C@H]1[C@@H]2C [TAIII (2), timosaponin A III] | 42 ± 9% | –
